Results: article PMC6572376, “N1-Propargylguanosine Modified mRNA Cap Analogs: Synthesis, Reactivity, and Applications to the Study of Cap-Binding Proteins” (Molecules, 2019)

Target: T1, hDcpS (Homo sapiens, UniProt Q96C86)
T1 construct: made in house
T1 sequence (Q96C86 1-337): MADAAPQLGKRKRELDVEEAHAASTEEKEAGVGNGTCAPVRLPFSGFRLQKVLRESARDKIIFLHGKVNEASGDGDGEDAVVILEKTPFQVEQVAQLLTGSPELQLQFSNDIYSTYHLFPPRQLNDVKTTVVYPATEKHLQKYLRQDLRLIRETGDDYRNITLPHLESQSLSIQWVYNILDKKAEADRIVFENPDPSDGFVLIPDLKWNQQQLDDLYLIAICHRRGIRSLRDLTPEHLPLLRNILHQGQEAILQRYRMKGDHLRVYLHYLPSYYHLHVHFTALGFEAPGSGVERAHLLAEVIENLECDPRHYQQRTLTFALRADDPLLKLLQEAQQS
Assay: hDcpS cleavage of fluorescent probes monitored by emission spectroscopy
Format: biochemical
Settings: 30 nM hDcpS; probe 30 µM / 100 nM (legend, methods)
Protocol: Fluorescently labeled cap analogs that serve as DcpS substrates can be considered as activity probes. We performed an enzymatic cleavage test with 30 nM hDcpS and 30 µM probe to evaluate whether fluorescently labeled derivatives of cap analog 1 (probes 6–9) can be used to monitor enzymatic activity via changes in fluorescence emission. […] For the Py-labeled probe 9, the fluorescence intensity at the emission maximum increased by 50% after complete DcpS cleavage (Figure 4c and Figure S3). Nevertheless, certain previously developed probes provided higher sensitivity than the one formulated here.
Human DcpS was expressed and purified as described previously. Enzyme was stored at −80 °C at 10 µM concentration (monomer). Enzyme hDcpS was preincubated at 30 °C for 15 min before usage. […] Reaction progress was monitored by recording emission spectra, upon excitation at the wavelength characteristic for a fluorophore studied, using Cary Eclipse (Agilent Technologies, Santa Clara, CA, USA) equipped with a xenon lamp in a quartz cuvette (10 mm × 4 mm).
Figure 4 The influence of complete cleavage by hDcpS (30 nM) on the fluorescence properties of probes 6–9 (100 nM). Emission spectra before (0 min) and after (60 min) decapping scavenger (DcpS) cleavage for compounds 6 (a) and 9 (b); (c) The ratios of fluorescence intensity after and before cleavage (I/I0) for all studied probes.

With `C[n+]1cn([C@@H]2O[C@H](COP(=O)(O)OP(=O)([O-])OP(=O)(O)OC[C@H]3O[C@@H](n4cnc5c(=O)n(Cc6cn(CCOCCOCCNC(=O)Cc7ccc8ccc9cccc%10ccc7c8c9%10)nn6)c(N)nc54)[C@H](O)[C@@H]3O)[C@@H](O)[C@H]2O)c2nc(N)nc(O)c21` [Compound 9, m^7Gp3G-N1-Py] the “Increase of fluorescence intensity at the emission maximum after complete DcpS cleavage” value was 50%.
